From patent US20160038468A1 (priority 2013, published 2016)
Read-outs that look alike come from different tables or passages of the source.

Legend:
Assay type in all cases: cell-based
Peptoniphilus harei = assay: Agar dilution MIC (CLSI), Peptoniphilus harei vaginal isolates; conditions: for MIC: read-out: Minimal Inhibitory Concentration (MIC)
Peptoniphilus lacrimalis = assay: Agar dilution MIC (CLSI), Peptoniphilus lacrimalis vaginal isolates; conditions: for Number of strains with indicated MIC: 20 samples; for MIC: read-out: Minimal Inhibitory Concentration (MIC)
[1] = test system: Megasphaera-like bacteria; assay: Agar dilution MIC (CLSI), Megasphaera-like bacteria vaginal isolates; conditions: for MIC: read-out: Minimal Inhibitory Concentration (MIC); for Number of strains with indicated MIC: 25 samples
[2] = Peptoniphilus harei, # tested 23
[3] = Peptoniphilus lacrimalis, # tested 20

CCC[C@@H]1C[C@@H](C(=O)N[C@@H]([C@H]2O[C@H](SC)[C@H](O)[C@@H](O)[C@H]2O)[C@H](C)Cl)N(C)C1 [Clindamycin]
0.03 to 0.125 µg/mL: MIC Range ([1]; # tested 25)
21 (91) μg/ml: Susceptible (Peptoniphilus harei; number (%) of isolates, # tested 23)
8 µg/mL: MIC (Peptoniphilus lacrimalis; Peptoniphilus lacrimalis, isolate 601318V E)
0.03 µg/mL: MIC ([1]; 427510 h, isolate 427507 H) | MIC50 ([1]; # tested 25) | MIC90 ([1]; # tested 25) | MIC ([1]; isolate 426749 T) | MIC ([1]; isolate 426766 Q) | MIC ([1]; isolate 426788 8a) | MIC ([1]; isolate 426788 C) | MIC ([1]; isolate 427470 10) | MIC ([1]; isolate 427490 2u) | MIC ([1]; isolate 427522 8) | MIC ([1]; isolate 600770 O) | MIC ([1]; isolate 600790 N) | MIC ([1]; isolate 600796 V) | MIC ([1]; isolate 600831 9) | MIC ([1]; isolate 600837 18) | MIC ([1]; isolate 600861 P) | MIC ([1]; isolate 602236 E3) | MIC ([1]; isolate 602241 D) | MIC ([1]; isolate 602241 F) | MIC ([1]; isolate 602270 A) | MIC ([1]; isolate 602282 I) | MIC ([1]; isolate 602288 16) | MIC ([1]; isolate 602302 22) | MIC ([1]; isolate 602305 I) | MIC ([1]; isolate 602324 8) | MIC ([1]; isolate 602672 12A)
0.125 µg/mL: MIC (Peptoniphilus harei; Peptoniphilus harei, isolate 601311V R) | MIC (Peptoniphilus harei; Peptoniphilus harei, isolate 601342V F) | MIC (Peptoniphilus harei; Peptoniphilus harei, isolate 601365V 14) | MIC (Peptoniphilus harei; Peptoniphilus harei, isolate 601426V D) | MIC (Peptoniphilus harei; Peptoniphilus harei, isolate 601430V 22) | MIC (Peptoniphilus lacrimalis; Peptoniphilus lacrimalis, isolate 601060V 32A) | MIC (Peptoniphilus lacrimalis; Peptoniphilus lacrimalis, isolate 601078V O) | MIC (Peptoniphilus lacrimalis; Peptoniphilus lacrimalis, isolate 601084V c) | MIC (Peptoniphilus lacrimalis; Peptoniphilus lacrimalis, isolate 601365V 13) | MIC ([1]; isolate 427509 A)
6 (30) μg/ml: Resistant (Peptoniphilus lacrimalis; number (%) of isolates, # tested 20, resistance: rifaximin >32, metronidazole >32, clindamycin >8 μg/ml)
>128 µg/mL: Minimal Inhibitory Concentration (MIC) (Peptoniphilus harei; isolate 426868V D) | Minimal Inhibitory Concentration (MIC) (Peptoniphilus lacrimalis; isolate 601261V O) | Minimal Inhibitory Concentration (MIC) (Peptoniphilus lacrimalis; isolate 601296V N)
14 (70) μg/ml: Susceptible (Peptoniphilus lacrimalis; number (%) of isolates, # tested 20)
24: Number of strains with indicated MIC ([1]; MIC 0.03 μg/ml)
2 (9) μg/ml: Resistant (Peptoniphilus harei; number (%) of isolates, # tested 23, resistance: rifaximin >32, metronidazole >32, clindamycin >8 μg/ml)
0.25 µg/mL: MIC (Peptoniphilus harei; Peptoniphilus harei, isolate 601203V 8) | MIC (Peptoniphilus harei; Peptoniphilus harei, isolate 601293V 21) | MIC (Peptoniphilus harei; Peptoniphilus harei, isolate 601355V D) | MIC (Peptoniphilus harei; Peptoniphilus harei, isolate 601399V 16) | MIC (Peptoniphilus harei; Peptoniphilus harei, isolate 601409V L) | MIC (Peptoniphilus harei; Peptoniphilus harei, isolate 601413V 16) | MIC (Peptoniphilus harei; Peptoniphilus harei, isolate 601539V 25B) | MIC (Peptoniphilus lacrimalis; Peptoniphilus lacrimalis, isolate 601255V 12) | MIC (Peptoniphilus lacrimalis; Peptoniphilus lacrimalis, isolate 601293V 15) | MIC (Peptoniphilus lacrimalis; Peptoniphilus lacrimalis, isolate 601305V K-1) | MIC (Peptoniphilus lacrimalis; Peptoniphilus lacrimalis, isolate 601330V H) | MIC (Peptoniphilus lacrimalis; Peptoniphilus lacrimalis, isolate 601336V 47) | MIC (Peptoniphilus lacrimalis; Peptoniphilus lacrimalis, isolate 601368V 39) | MIC (Peptoniphilus lacrimalis; Peptoniphilus lacrimalis, isolate 601375V E) | MIC (Peptoniphilus lacrimalis; Peptoniphilus lacrimalis, isolate 601388V B) | MIC (Peptoniphilus lacrimalis; Peptoniphilus lacrimalis, isolate 601401V I) | MIC50 (Peptoniphilus lacrimalis; [3])
1 µg/mL: MIC (Peptoniphilus harei; Peptoniphilus harei, isolate 601212V 15) | MIC (Peptoniphilus harei; Peptoniphilus harei, isolate 601259V 11) | MIC (Peptoniphilus harei; Peptoniphilus harei, isolate 601289V C) | MIC (Peptoniphilus harei; Peptoniphilus harei, isolate 601326V F) | MIC90 (Peptoniphilus harei; [2])
0.06 µg/mL: MIC (Peptoniphilus lacrimalis; Peptoniphilus lacrimalis, isolate 601105V 13)
1: Number of strains with indicated MIC (Peptoniphilus lacrimalis; MIC 0.06 μg/ml) | Number of strains with indicated MIC (Peptoniphilus lacrimalis; MIC 8 μg/ml) | Number of strains with indicated MIC ([1]; MIC […])
3: Number of strains with indicated MIC (Peptoniphilus lacrimalis; MIC >[…])
128 µg/mL: MIC (Peptoniphilus lacrimalis; Peptoniphilus lacrimalis, isolate 601028V 27A) | MIC (Peptoniphilus lacrimalis; Peptoniphilus lacrimalis, isolate 601139V 17)
> 128 µg/mL: MIC (Peptoniphilus harei; Peptoniphilus harei) | MIC (Peptoniphilus lacrimalis; Peptoniphilus lacrimalis) | MIC90 (Peptoniphilus lacrimalis; [3])
0.5 µg/mL: MIC (Peptoniphilus harei; Peptoniphilus harei, isolate 601248V 23) | MIC (Peptoniphilus harei; Peptoniphilus harei, isolate 601302V F1) | MIC (Peptoniphilus harei; Peptoniphilus harei, isolate 601374V F) | MIC (Peptoniphilus harei; Peptoniphilus harei, isolate 601388V Q) | MIC50 (Peptoniphilus harei; [2])
